Source: patent US20220273926A1, “DRUG DELIVERY USING MICRONEEDLE ARRAYS” (BOARD OF REGENTS OF THE UNIVERSITY OF NEBRASKA, priority 2019, published 2022)
Entries after “also recorded” stand apart in the source; their conditions may differ. Where two headings read alike, the source gives them in different places.

Columns and labels:
[1] = Drug adsorption to the bandage: solution perfused through the MNAs; type: physicochemical; conditions: perfusion through bandage and MNAs; BSA 54 ng/mL, cefazolin 16 μg/mL
Protocol: Once the system was characterized, the efficiency of the bandage in drug delivery was evaluated. Initially, the potential drug adsorption to the engineered bandage was to be tested. […] The solution was then collected at different time points after perfusion through the MNAs and the concentration of the drugs determined using a total protein assay (for BSA) and UV-Vis spectrophotometry (for cefazolin).
Drug Delivery Characterization: The potential protein and drug adsorption by the bandage, tubing, and MNAs were investigated by perfusing a solution with known concentrations of cefazolin salt and BSA. 150 μL of the delivered solution was collected at different time points and the concentrations of cefazolin and BSA were determined by measuring the solution absorbance for cefazolin and BCA protein assay kit for BSA.

[2] = after 180 min, target 20 μg/mL
Description: The intradermal drug delivery kinetics were further evaluated by developing an in vitro model mimicking the structure of wounds in which eschar and granulation tissue separates the endothelial cells from the outside environment. This model, illustrated schematically in FIG. 2a, consisted of a cell culture insert with a porous membrane covered by agarose (3% w/v) with ˜2 mm thickness, and the bottom well represented the environment of endothelial cells.
Assessment of release kinetics: To mimic the chronic wound tissue, 12-well cell culture inserts were filled with 150 μL of 3% (w/v) agarose. […] Inserts were divided into 3 groups (4 replicate/group) with respect to the method of delivery, including topical, MNA, and LJI. To measure the concentration of the delivered solution, at each time point 100 μL was removed and then replaced with the same volume of fresh PBS. After collecting all samples, the concentration was measured by a plate reader (Cytation 5, BioTek) followed by data analysis to extract the related release graphs. In the case of BSA, measurement process was followed based on manufacturer's protocol.

[3] = Cefazolin release from thermo-responsive alginate/PNIPAM patch with heater; type: physicochemical; conditions: PNIPAM carriers in alginate patch, heat applied; over 1 h
Description: To minimize the thermal contact resistance between the microheater and the hydrogel layer, the hydrogel was directly cast on top of the heater. Chronic wounds are known for their high rate of exudate generation and thus exudate management is important in the proper function of the sensors and drug delivery modules. The utilized alginate-based hydrogels are known for high water uptake and swelling ratios and have been used in engineering wet wound dressings. In addition, since the sensors are in direct contact with the skin, the swelling of the hydrogels is not expected to affect the readout. To visualize the drug release, rhodamine B was loaded into PNIPAM particles and the system was heated while being monitored under a microscope. […] After applying heat to the alginate patch, the cefazolin release profile was measured over time. […] To assess the possibility of releasing drugs in a dynamic fashion, heat was applied periodically (30 min on, 30 min off) and the drug release amount was determined. […]
Drug Release with Integrated Heaters: Alginate hydrogel with embedded drug microcarriers was attached on the surface of the microheater while 200 μL PBS was added into the plate and electrical voltage was applied to generate heat. The drug released into the solution was evaluated using plate reader.

keratinocytes = test: Scratch test assay on keratinocytes contaminated with S. aureus; type: cell-based, human; conditions: keratinocyte monolayer contaminated with S. aureus
Protocol: A standard scratch test assay was used to evaluate the cell migration in presence of bacteria. […] To perform this experiment, the scratch was created over a monolayer of the confluent keratinocytes, which were contaminated with S. aureus in advance. Three groups were used for this set of experiments: (1) cefazolin powder as a positive control, (2) alginate without antibiotic loading as a negative control, and (3) alginate containing cefazolin.
Keratinocytes (1×10^5) were seeded and cultured in a six-well plate and kept overnight to make a confluent monolayer overnight. The 1 mm wide gap scratch was then created onto the monolayer with a 200 μL pipette tip, and floating cells were removed by twice washing with PBS. After the line scratches, 2 mL of DMEM was added for each group. To detect the efficacy of treatments on cell migration, samples were continually imaged for 0, 8, 24, and 48 h. Images of the monolayer were taken by a microscope and cell migration activity was evaluated as the migration distance from the edges of the scratch toward the center of it using Image J software (NIH, Bethesda, Md., USA). For each well, ten images were taken and selected randomly. Experiments were done independently in triplicate.

Cc1nnc(SCC2=C(C(=O)O)N3C(=O)[C@@H](NC(=O)Cn4cnnn4)[C@H]3SC2)s1 [cefazolin]
temporal changes in the drug concentration within the perfused solution [1]: not statistically significant; also recorded: insignificant change in concentration | delivered into the bottom chamber (overall efficiency of delivery) ([2]; LJI): more than 90% | delivered into the bottom chamber (overall efficiency of delivery) ([2]; MNAs): ~65% | delivered into the bottom chamber (overall efficiency of delivery) ([2]; topical (TOP)): ~25% | drug released [3]: about 80% | cell migration in scratch assay (keratinocytes): rapid migration toward the opening area was observed
